Values of other authors, collected in patent publication US20230346830A1 (priority 2020, published 2023).
Like-named read-outs stand apart in the source and are kept apart here.

How the values were obtained:
[1] = tested on: SARS CoV
[2] = tested on: broad range of microorganisms; details: no less than 160 ppm, five hours of continuous exposure
[3] = tested on: severe acute respiratory syndrome SARS; details: in vivo
[4] = 160 ppm for 30 min every 3.5 hours, intermittent
[5] = tested on: influenza WSN/33

SMILES | inhibition of the virus replication cycle compared with cytokine treatment ([1]; 50 μM SNAP) | reduction in the yield of progeny virus ([1]; 100 μM SNAP) [log] | viral RNA production ([1]; 400 μM SNAP) | inhibitory effect on yield of progeny virus ([1]; 400 μM SNAP, compared with 100 μM) | replication cycle of SARS CoV ([1]; concentration-dependent) | replication cycle of SARS CoV [1] | antimicrobial response in vitro [2] | arterial oxygen saturation [3] | lung infiltrates [3] | methemoglobinemia [4] | survival of infected mice ([5]; administered prophylactically or post-influenza infection, 80 ppm continuous or 160 ppm intermittent) | lung viral load between experimental groups ([5]; influenza-infected mice) | effect on the virus ([5]; influenza-infected mice, continuously at 80 ppm or intermittently at 160 ppm for 30 minutes followed by 3½ hours of breathing air)
CC(=O)N[C@H](C(=O)O)C(C)(C)SN=O (racemic) [SNAP, S-nitroso-N-acetylpenicillamine] | same level of inhibition | 2 | significantly inhibited | even more pronounced | significantly inhibited |  |  |  |  |  |  |  | 
[N]=O [NO, Nitric oxide] |  |  |  |  |  | specifically inhibits | non-specific antimicrobial response | improved | decreased the spread and intensity | could prevent methemoglobinemia | failed to improve survival | No difference | no effect
